Experimental data published in patent US20250353873A1, “COMPOUNDS AND METHODS FOR MODULATING APOE EXPRESSION” (Ionis Pharmaceuticals, Inc., priority 2024, published 2025).
pIC50: −log10 of the molar value. Strand notation (5' to 3'): a small letter for the sugar, then the base; units joined by * are phosphorothioate-linked, units joined directly phosphodiester-linked; [ ] holds rarer units or linkages, { } end groups; capitals alone tell only the bases. [ms] = mesyl phosphoramidate linkage; e = 2'-O-(2-methoxyethyl) (MOE); k = constrained ethyl (cEt); [5mC] = 5-methylcytosine; d = 2'-deoxy (DNA)

What was measured:
[1] = tested on: human APOE RNA; experiment: Dose-dependent inhibition of human APOE RNA in HepG2 cells, electroporation, 50,000 cells per well, RT-PCR normalized to GAPDH (Example 4, Tables 8-10); format: cell-based; conditions: for APOE RNA (% UTC) 1,280 nM: 24-hour treatment, 1,280 nM; for APOE RNA (% UTC) 3,200 nM: 24-hour treatment, 3,200 nM; for APOE RNA (% UTC) 8,000 nM: 24-hour treatment, 8,000 nM; for APOE RNA (% UTC) 20,000 nM: 24-hour treatment, 20,000 nM
Procedure, shortened: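 HepG2 cells, 50,000 per well, electroporated with modified oligonucleotide at various concentrations. APOE RNA quantified by RT-PCR with human primer probe set RTS3073, normalized to GAPDH. Values are percent APOE RNA relative to untreated control cells.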

[2] = tested on: human APOE RNA; experiment: Activity in APOE C57BL/6NTac-Apoeem7250 knock-in mice, single ICV bolus, 4 weeks (Example 10); format: in vivo; conditions: single ICV bolus 300 μg, 4 weeks post treatment, normalized to mouse Ppia
Procedure, shortened: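 Knock-in mice (2–4 per group) received one 300 μg ICV bolus of oligonucleotide or PBS. After four weeks, human APOE RNA in cortex and spinal cord measured by RT-qPCR (primer probe set RTS3073), normalized to mouse Ppia, expressed as % of PBS controls.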

[3] = tested on: human APOE RNA; experiment: Activity in APOE C57BL/6NTac-Apoeem7250 knock-in mice, single ICV bolus, 8 weeks (Example 11); format: in vivo; conditions: single ICV bolus 300 μg, 8 weeks post treatment, normalized to mouse Ppia
Procedure, shortened: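 Human APOE knock-in C57BL/6NTac mice given one ICV bolus of 300 μg oligonucleotide; PBS-dosed group as control. At 8 weeks, cortex and spinal cord RNA measured by qRT-PCR (human probe RTS3073), normalized to mouse Ppia, expressed as % of PBS control.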

[4] = tested on: human APOE RNA; experiment: Activity in APOE C57BL/6NTac-Apoeem7250 knock-in mice, single ICV bolus, 16 weeks (Example 12); format: in vivo; conditions: single ICV bolus 300 μg, 16 weeks post treatment, normalized to mouse Ppia
Procedure, shortened: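 Knock-in mice (3-4 per group) received one ICV bolus of 300 μg oligonucleotide, PBS as control. After 16 weeks, human APOE RNA in cortex and spinal cord measured by RT-qPCR, normalized to mouse Ppia, and reported as % of PBS control.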

[5] = tested on: human APOE RNA; experiment: Activity in APOE C57BL/6NTac-Apoeem7250 knock-in mice, single ICV bolus, 20 weeks (Example 13); format: in vivo; conditions: single ICV bolus 300 μg, 20 weeks post treatment, normalized to mouse Ppia
Procedure, shortened: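 Knock-in mice (n=4) given a single ICV bolus of 300 μg oligonucleotide, PBS as control. After 20 weeks, human APOE RNA in cortex and spinal cord measured by RT-qPCR, normalized to mouse Ppia, expressed as % of PBS-treated animals.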

[6] = HepG2 cells, electroporation, 24-hour treatment, 5 nM, Table 8
[7] = HepG2 cells, electroporation, 24-hour treatment, 13 nM, Table 8
[8] = HepG2 cells, electroporation, 24-hour treatment, 33 nM, Table 8
[9] = HepG2 cells, electroporation, 24-hour treatment, 82 nM, Table 8
[10] = HepG2 cells, electroporation, 24-hour treatment, 205 nM, Table 8
[11] = HepG2 cells, electroporation, 24-hour treatment, 512 nM, Table 8
[12] = HepG2 cells, electroporation, Table 8
[13] = reduction of human APOE RNA, HepG2 cells, electroporation, 24-hour treatment, Table 8
[14] = 5 nM, HepG2, electroporation, 16-hour treatment
[15] = 13 nM, HepG2, electroporation, 16-hour treatment
[16] = 33 nM, HepG2, electroporation, 16-hour treatment
[17] = 82 nM, HepG2, electroporation, 16-hour treatment
[18] = 205 nM, HepG2, electroporation, 16-hour treatment
[19] = 512 nM, HepG2, electroporation, 16-hour treatment
[20] = 1,280 nM, HepG2, electroporation, 16-hour treatment
[21] = 3,200 nM, HepG2, electroporation, 16-hour treatment
[22] = 8,000 nM, HepG2, electroporation, 16-hour treatment
[23] = 20,000 nM, HepG2, electroporation, 16-hour treatment
[24] = HepG2, electroporation, 16-hour treatment

Substance | APOE RNA (% UTC) 5 nM [1, 6] [% UTC] | APOE RNA (% UTC) 13 nM [1, 7] [% UTC] | APOE RNA (% UTC) 33 nM [1, 8] [% UTC] | APOE RNA (% UTC) 82 nM [1, 9] [% UTC] | APOE RNA (% UTC) 205 nM [1, 10] [% UTC] | APOE RNA (% UTC) 512 nM [1, 11] [% UTC] | APOE RNA (% UTC) 1,280 nM [1, 12] [% UTC] | APOE RNA (% UTC) 3,200 nM [1, 12] [% UTC] | APOE RNA (% UTC) 8,000 nM [1, 12] [% UTC] | APOE RNA (% UTC) 20,000 nM [1, 12] [% UTC] | pIC50 [1, 13] | APOE RNA (% control) Cortex [2] [% control] | APOE RNA (% control) Spinal Cord [2] [% control] | APOE RNA (% control) Cortex [3] [% control] | APOE RNA (% control) Spinal Cord [3] [% control] | APOE RNA (% control) Cortex [4] [% control] | APOE RNA (% control) Spinal Cord [4] [% control] | APOE RNA (% control) Cortex [5] [% control] | APOE RNA (% control) Spinal Cord [5] [% control] | APOE RNA (% UTC) [1, 14] [% UTC] | also measured
1785601: modified oligonucleotide complementary to human APOE RNA (k[5mC]*kT*kT*dG[ms]dG[ms]dT[ms]dG*dA[ms]dA[ms]dT*d[5mC]*dT*dT*dT*dA[ms]dT*kT*kA*dA[ms]kA; antisense) [compound 1785601] | 111 | 115 | 101 | 75 | 63 | 36 | 25 | 15 | 16 | 10 | 6.42 | 33 | 40 | 28 | 211 | 39 | 21 | 43 | 31 |  | 
1757571 (eA*e[5mC]eTeT*eG*kG*dT*dG[ms]dA[ms]dA[ms]dT*d[5mC]*dT*dT*dT*dA[ms]eT*eT*eA*eA; antisense) [Compound 1757571] |  |  |  |  |  |  |  |  |  |  |  | 48 | 35 | 66 | 33 | 47 | 26 | 53 | 73 | 68 | APOE RNA (% UTC) [1, 15]: 86 % UTC; APOE RNA (% UTC) [1, 16]: 98 % UTC; APOE RNA (% UTC) [1, 17]: 62 % UTC; APOE RNA (% UTC) [1, 18]: 103 % UTC; APOE RNA (% UTC) [1, 19]: 38 % UTC; APOE RNA (% UTC) [1, 20]: 26 % UTC; APOE RNA (% UTC) [1, 21]: 24 % UTC; APOE RNA (% UTC) [1, 22]: 14 % UTC; APOE RNA (% UTC) [1, 23]: 11 % UTC; pIC50 [1, 24]: 6.26
1785604: modified oligonucleotide complementary to human APOE RNA (k[5mC]*dT[ms]dT[ms]kG*dG[ms]kT*dG[ms]dA[ms]dA*dT*d[5mC]*dT*dT*dT*dA*dT*kT*kA*dA[ms]kA; antisense) [compound 1785604] | 92 | 108 | 89 | 86 | 69 | 47 | 44 | 47 | 13 | 7 | 6.06 | 39 | 55 | 28 | 35 | 41 | 27 | 55 | 47 |  | 
1757574 (eA*e[5mC]eTeT*eG*eG*dT*dG[ms]dA[ms]dA[ms]dT*d[5mC]*dT*dT*dT*dA[ms]kT*kT*eA*eA; antisense) [Compound 1757574] |  |  |  |  |  |  |  |  |  |  |  | 43 | 32 | 44 | 21 | 55 | 22 | 60 | 68 | 90 | APOE RNA (% UTC) [1, 15]: 80 % UTC; APOE RNA (% UTC) [1, 16]: 85 % UTC; APOE RNA (% UTC) [1, 17]: 78 % UTC; APOE RNA (% UTC) [1, 18]: 93 % UTC; APOE RNA (% UTC) [1, 19]: 66 % UTC; APOE RNA (% UTC) [1, 20]: 47 % UTC; APOE RNA (% UTC) [1, 21]: 28 % UTC; APOE RNA (% UTC) [1, 22]: 19 % UTC; APOE RNA (% UTC) [1, 23]: 20 % UTC; pIC50 [1, 24]: 5.93
1778115: modified oligonucleotide complementary to human APOE RNA (eA*e[5mC]eTeTkGkG*dT*dG[ms]dA[ms]dA*dT*d[5mC]*dT*dT*dT*dA[ms]eTeT*eA*eA; antisense) [compound 1778115] | 76 | 75 | 73 | 85 | 72 | 43 | 38 | 29 | 32 | 6 | 6.28 | 37 | 66 | 46 | 27 | 44 | 28 | 77 | 28 |  | 
1778123: modified oligonucleotide complementary to human APOE RNA (eA*e[5mC]eTeTeG*eG*dT*dG[ms]dA[ms]dA*dT*d[5mC]*dT*dT*dT*dA[ms]kTkT*eA*eA; antisense) [compound 1778123] | 79 | 91 | 84 | 76 | 55 | 51 | 25 | 11 | 6 | 5 | 6.49 | 37 | 59 | 49 | 29 | 54 | 31 | 77 | 36 |  | 
